According to US20090029856A1, “Hinokitiol As A Plant Pesticide” (priority 2007, published 2009):
Several values for one entry are separate records, joined by “and”; a condition that tells them apart may be missing. Equal values may be shown once.

Legend:
[1] = test system: Lactuca sativa (lettuce) seeds; assay: 96-well seed germination inhibition screen; format: in vivo; conditions: single lettuce seed per well, 50 μL solution, 5× dilution series
Experimental: Numerous natural compounds were screened for their ability to inhibit the germination of dicot (broadleaved weed) seeds. A single seed of Lactuca sativa (lettuce) was placed in each well of a 96-well plate followed by 50 μL of a solution of each compound in a stepwise (5×) dilution series from 25% to 0%. Germination was monitored daily. Based on this screening study, the threshold value for hinokitiol to inhibit germination of seeds was determined at 0.32 mg/L.

Botrytis gray mold = Botrytis gray mold on pepper plants, formulation applied pre and post infection; format: in vivo
Experimental: Pepper plants (California Wonder Bell Pepper) were treated with a 3.2% Hinokitiol formulation containing propylene glycol, nonphytotoxic ethoxylate fatty esters; butanol, EDTA, UV protection agent, 1% of a 15% solution of sodium hydroxide and water 3 hours before and 24 hours after inoculation (pre and post infection, respectively). Hinokitiol concentration in pre-infection application was 1.0% v/v and for post-infection application was 2.0% v/v. Three plants were included per treatment in pre-infection applications, and 18 plants in post-infection treatments. The formulation employed contained 3.2% of active ingredient. Inoculation was performed with a conidial suspension of 1.8×10^6 conidia per ml of 75% PDB (Potato Dextrose Broth). Scale of evaluation was 0=no infection, 1=Small scattered lesions, 2=Scattered big lesions or small ones covering more than 50% of leaf surface, 3=Half plant dead, 4=75% of the plant dead, 5=Entire plant dead. Evaluation was performed 3 days after inoculation.

Botrytis cinerea (BOT) = assay: Spiral plating method, growth inhibition; format: cell-based; conditions: B. cinerea
Experimental: (§1) The spiral plating method was used to deposit the fungicides on PDA and TSA plates with exponential logarithmic decrease of product concentration from the centre to the edge of the plate. The plates were left standing for four hours and inoculated with the fungus and bacteria. There were four repetitions of the same microorganism done per plate and there was one replica of each plate.
(§2) The plates were cultured for 3 days before measurements of growth were taken. The ‘distance of inhibition’ indicates the length of the zone with no growth, measured from center edge of the agar, the ‘colony width ratio’ indicates the ratio of the width of growth measured at the zero concentration and width at the highest concentration with growth.

Fusarium sp (FUSM) = assay: Spiral plating method, growth inhibition; format: cell-based; conditions: average distance of inhibition / 28 mm × 100
Experimental: as §1, §2

[2] = test system: Erwinia carotovora (ERWC); assay: Spiral plating method, growth inhibition; format: cell-based; conditions: E. carotovora; average distance of inhibition / 28 mm × 100
Experimental: as §1, §2

[3] = test system: Pseudomonas viridilivida (PSVI); assay: Spiral plating method, growth inhibition; format: cell-based; conditions: P. viridilivida
Experimental: as §1, §2

[4] = test system: Xanthomonas campestris (X-CAM); assay: Spiral plating method, growth inhibition; format: cell-based; conditions: average distance of inhibition / 28 mm × 100
Experimental: as §1, §2

[5] = test system: grey mold (Botrytis cinerea); assay: In vivo greenhouse test on green bell pepper (Capsicum annuum) against grey mold; conditions: for Average (mean) disease rating, 2 days / Average (mean) disease rating, 3 days / Average (mean) disease rating, 7 days: mean of 3 replicates; for rating at day 3 / rating at day 7 / rating at day 2: single replicates
Experimental: To further test the inhibitory effect of hinokitiol on grey mold (Botrytis cinerea), an in vivo test on green bell pepper (Capsicum annuum) was conducted in a greenhouse. Pepper plants at a 6-true-leaf growth stage were sprayed with hinokitiol in 50% ethanol. The stock solution (5 mg/mL) was prepared in 97% ethanol, and diluted to following concentrations: 0, 0.01, 0.1 mg/mL. To compare the efficacy of hinokitiol in an alcohol-free solution, a treatment with 0.1 mg/mL of hinokitiol in water was included in this study. Pepper plants with no treatment were used as controls. All treatments were carried out in 3 replicates. After treatment with hinokitiol, the leaf surfaces were allowed to dry under the growth lights, after which the plants were inoculated with a B. cinerea spore solution containing 2×10^6 spores per mL. Inoculated plants were incubated in the dark in a covered flat at 22° C. […] Symptoms were rated on a scale of 0-5; 0 indicating no lesions on leaves, and 5 indicating severe rotting/dead plant.

[6] = Analysis of hinokitiol residue on green beans after sun exposure; format: physicochemical, green bean; conditions: for [hinokitiol] in the HPLC injection solution: green bean leaves
Experimental: The goal of this study was to know stability of hinokitiol on plant leaves, instead of vials, after sun exposure. The following procedure was used • 1. A 3.2% Hinokitiol formulation containing propylene glycol, nonphytotoxic ethoxylate fatty esters; butanol, EDTA, UV protection agent, 1% sodium hydroxide and water for a total of 100% was used. The total weight of each formulation was 20 grams. • 2. Spraying solution: 10 mL of 100-fold dilution of the above formulation. • 3. Green bean plants: 6 plants with 10-15 leaves. • 4. Two plants were evenly sprayed 10 mL solution. • 5. Three plants was stored in dark incubator (25° C.), another three plants was put on the parking lot with full sun exposure (28˜35° C.). • 6. After 6 h, leaves were cut and punched into the same size discs (Ø21 mm). Discs from sun-exposed green bean and darkness green bean were 118 and 129, respectively. • 7. Discs were ground in a mortar and transferred into a separation funnel. The mortar and pestle were sequentially washed with 2 N HCl and ethyl acetate. The hinokitiol was extracted three times (3×50 mL) by ethyl acetate under 2N HCl (100 mL). The organic phase was dried by anhydrous sodium sulfate. After filtration and evaporation, the organic phase gave out a residue. The residue was dissolved by ethanol (1.5 mL). This solution was directly used for HPLC analysis. Injection volume was 10 μL.
• Darkness: leaf disc 129 • Sun exposure: leaf disc 118 • Darkness: Peak area (AU): 50463 • Sun exposure: Peak Area (AU); 13197 • Standard line: y=66.367X-52.019 (R^2=0.9999, X=μg/ml of hinokitiol standard solution, 2 μL injection volume; y=peak area)
• [hinokitiol] from darkness=152 μg/mL*1.5 mL/129 Disc=1.77 μg/Disc • [hinokitiol] from sun exposure=40 μg/mL*1.5 mL/118 Disc =0.51 μg/Disc
• [hinokitiol] from sun exposure/[hinokitiol] from darkness=0.51/1.77=0.29

[7] = 0.01 mg/mL in 50% ethanol, scale 0-5
[8] = 0.1 mg/mL in 50% ethanol, scale 0-5

CC(C)c1cccc(=O)c(O)c1 [Hinokitiol, 4-isopropyl tropolone]
threshold value to inhibit germination of seeds [1]: 0.32 mg/L | number of pepper plants at scale of infection 2 (Botrytis gray mold; 0.64 mg/ml, 24 hr after inoculation, of 18 plants per rep): 12 and 7 | number of pepper plants at scale of infection 4 (Botrytis gray mold; 0.64 mg/ml, 24 hr after inoculation, of 18 plants per rep, 4 = 75% of the plant dead): 1 and 2 | intensity of disease (scale of severity 0-5), single plants (Botrytis gray mold; 3.2% hinokitiol formulation at 1.0% v/v (0.32 mg/ml), applied 3 hr before inoculation, evaluated 3 days after inoculation, 1 = small scattered lesions, 5 = entire plant dead): 1 | visible symptoms of disease or phytotoxicity on pepper plants (Botrytis gray mold; hinokitiol formulation at 1% (0.32 mg/ml) dilution): did not show any visible syptoms of disease or phytotocicity | inhibition of growth (Botrytis cinerea (BOT)): did not inhibit | % inhibition of growth (Fusarium sp (FUSM)): 32% | % inhibition of growth [2]: 62% | inhibition of growth [3]: did not inhibit | % inhibition of growth [4]: 83% | Average (mean) disease rating, 2 days ([5]; 0.01 mg/mL EtOH, scale 0-5): 1.7 a | Average (mean) disease rating, 3 days ([5]; 0.01 mg/mL EtOH, scale 0-5): 2.7 ab | Average (mean) disease rating, 7 days ([5]; 0.01 mg/mL EtOH, scale 0-5): 3.0 ab | rating at day 3 [5, 7]: 4 and 3 and 1 | rating at day 7 [5, 7]: 5 and 3 and 1 | rating at day 2 ([5]; 0.01 mg/mL in 50% ethanol, scale 0-5 (0 no lesions, 5 severe rotting/dead plant)): 2 (2×) and 1 | Average (mean) disease rating, 2 days ([5]; 0.1 mg/mL EtOH, scale 0-5): 1.7 a | Average (mean) disease rating, 3 days ([5]; 0.1 mg/mL EtOH, scale 0-5): 2.7 ab | Average (mean) disease rating, 7 days ([5]; 0.1 mg/mL EtOH, scale 0-5): 4.0 ab | Average (mean) disease rating, 2 days ([5]; 0.1 mg/mL H2O, scale 0-5): 0.3 b | Average (mean) disease rating, 3 days ([5]; 0.1 mg/mL H2O, scale 0-5): 0.7 b | Average (mean) disease rating, 7 days ([5]; 0.1 mg/mL H2O, scale 0-5): 2.3 b | rating at day 2 [5, 8]: 2 (2×) and 1 | rating at day 3 [5, 8]: 3 (2×) and 2 | rating at day 7 [5, 8]: 5 (2×) and 2 | rating at day 2 ([5]; 0.1 mg/mL in water, scale 0-5): 0 (2×) and 1 | rating at day 3 ([5]; 0.1 mg/mL in water, scale 0-5): 0 and 1 (2×) | rating at day 7 ([5]; 0.1 mg/mL in water, scale 0-5): 1 and 2 and 4 | incidence of B. cinerea compared with untreated control pepper plants ([5]; 0.1 mg/mL water): significantly lower | disease outbreak and final disease incidence compared with untreated control ([5]; dissolved in ethanol at 0.01 and 0.1 mg/mL): postponed the disease outbreak but the final disease incidence was not significantly different from the untreated control | Relative stability: [hinokitiol] from sun exposure/[hinokitiol] from darkness ([6]; 6 h): 0.29 | hinokitiol concentration on each disc of green beans ([6]; 6 h darkness, 25° C.): 1.77 μg/Disc | hinokitiol concentration on each disc of green beans ([6]; 6 h sun exposure, 28-35° C.): 0.51 μg/Disc | hinokitiol concentration per unit area (Disc) relative to that stored in the darkness at 25° C. ([6]; after 6 h sun exposure at 28-35° C.): 29% | [hinokitiol] in the HPLC injection solution ([6]; 6 h darkness, 25° C.): 152 µg/mL | [hinokitiol] in the HPLC injection solution ([6]; 6 h sun exposure, 28-35° C.): 40 µg/mL | time the residue on the plant would last ([6]; green bean plants): at least one day
